Data on one substance can be found in patent publication US20260139063A1, “PRE-MEDICATION AND IMPROVED TREATMENT REGIMEN” (MonTa Biosciences ApS, priority 2022, published 2026).

Data set [1] relates to plasma cytokines and chemokines. The experiment in a line: Clinical plasma biomarkers (cytokines and chemokines, MSD multiplex panels) after MBS8(1V270) with or without tocilizumab pre-medication. It counts as in vivo, human. The conditions noted are these: patients. As for the experimental part: FIG. 1: Detection of cytokines in plasma of subjects treated with 0.1 mg/kg MBS8(1V270) without (left panels) or with (right panels) pre-medication with tocilizumab (8 mg/kg). The measurements were done using GLP/GCP compliant multiplex panels purchased from Meso Scale Discovery (MSD) (Cytokine Panel 1 Human kit, Cytokine Panel 2 Human kit and Chemokine Panel 1 Human kit). Data treatment was performed using GraphPad Prism 9 software. Selected biomarkers were IL-6 (FIG. 1A), TNF-α (FIG. 1B), IL-1RA (FIG. 1C), IFN-γ (FIG. 1D), IP-10 (FIG. 1E), IL-1β (FIG. 1F), IL-8 (FIG. 1G) and IL-10 (FIG. 1H).
MBS8(1V270) was administered to all subjects at 0.1 mg/kg by IV infusion for a duration of 2 hours for four dosing occasions. Infusions were given one week apart on Days 1, 8, 15, and 22. Patients pretreated with tocilizumab were administered tocilizumab (8 mg/kg) prior to MBS8(1V270) infusion on the first dosing occasion (day 1) as a CRS preventive measure. The biomarkers were measured using GLP/GCP compliant and validated multiplex panels purchased from MSD in a quantitative procedure to measure these cytokines and chemokines.
The following plasma biomarkers were identified in this clinical study: safety-related (IL-1β, IL-8, IL-6, TNF-α and IL-10) and pharmacodynamics biomarkers (IFN-γ, MCP-1, IP-10, IL-1RA and IL-12p70) (FIG. 1A-1H). Blood samples were taken at pre-dose (0), 2 h, 8 h, and 24 h post-end of infusion and processed to plasma and frozen for later biomarker analyses.

Data set [2] concerns subjects presenting with advanced solid tumors. As to the kind of experiment: Occurrence of Cytokine Release Syndrome (CRS), CTCAE version 5.0 grading, on all dosing occasions. It counts as in vivo, human. As for the experimental part:
FIG. 2: Table overview (FIG. 2A) of CRS occurrences in patients were assessed according to CTCAE grading, in patients treated with MBS8(1V270) on 4 occasions on day 1, 8, 15 and 22. Patient (pt) 1-3 were not pretreated with tocilizumab, whereas pt 4-7 were pretreated with tocilizumab prior to dosing with MBS8(1V270). All subjects received MBS8(1V270) at 0.1 mg/kg at each dosing occasion, and the clinical picture observed and rated according to the CTCAE grading shown in FIG. 2B. N/A=Not applicable. Table overview (FIG. 2B) of official CTCAE grading of patients with CRS symptoms as used for grading of CRS severeness for patients in FIG. 2A.CRS grading was done according to CTCAE Version 5.0.
MBS8(1V270) was administered to all subjects at 0.1 mg/kg by IV infusion for a duration of 2 hours for four dosing occasions. Infusions were given one week apart on Days 1, 8, 15, and 22. Patients pretreated with tocilizumab were administered tocilizumab (8 mg/kg) prior to MBS8(1V270) infusion on the first dosing occasion as a CRS preventive measure. […] Seven subjects presenting with advanced solid tumors were treated with MBS8(1V270) at 0.1 mg/kg once weekly on four dosing occasions as described in Example 1. […] Tocilizumab was administered as a one-hour intravenous infusion at 8 mg/kg just prior to MBS8(1V270) administration.
Occurrence of Cytokine Release Syndrome (CRS) was assessed on all dosing occasions. CRS was defined in accordance with Common Terminology Criteria for Adverse Events (CTCAE) version 5.0 as “a disorder characterized by fever, tachypnea, headache, tachycardia, hypotension, rash, and/or hypoxia caused by the release of cytokines”.

[3] abbreviates: tocilizumab 8 mg/kg prior to MBS8(1V270) 0.1 mg/kg IV.
[4] abbreviates: tocilizumab premedicated patients (pt 4-7): tocilizumab 8 mg/kg IV day 1 just prior to MBS8(1V270) 0.1 mg/kg IV, days 1, 8, 15, 22.

Entries after “also recorded” stand apart in the source; their conditions may differ.

Turning to “tocilizumab: humanized monoclonal antibody against the interleukin-6 receptor (IL-6R), CAS: 375823-41-9”, in data set [1] (setting [3]), the “IFN-γ plasma level after tocilizumab premedication compared with without” value is given as “higher levels”, the “IL-6 plasma level after tocilizumab premedication compared with without” value is given as “higher levels”, the “IP-10 plasma level after tocilizumab premedication compared with without” value is reported as “higher levels” and the “interference of tocilizumab with the MoA of MBS8(1V270)” value is on record as “does not interfere”. Moreover, in data set [1] (tocilizumab 8 mg/kg prior to MBS8(1V270) 0.1 mg/kg IV infusion on day 1, plasma pre-dose, 2 h, 8 h, 24 h post-end of infusion), the “effect of tocilizumab pre-medication on cytokine and chemokine levels expected to play a role for the anti-tumor activity of MBS8(1V270)” value is reported as “does not downregulate”. Besides, in data set [2] (patient 4-7 pretreated with tocilizumab 8 mg/kg before MBS8(1V270) 0.1 mg/kg), the “CRS observed (clinical signs, CTCAE v5.0)” value was “No clinical signs of CRS; also recorded: no CRS observed at any dosing occasion”. In data set [2] (setting [4]), the “CRS experienced, number of dosing occasions” value is given as 0 of the 14 and the “CRS experienced, percent of dosing occasions” value is 0%.
